Earlier results, collected in patent US20240350489A1, “LOU064 FOR TREATING MULTIPLE SCLEROSIS” (NOVARTIS AG, priority 2021, published 2024).
“Also recorded” adds a separate entry of the source. Like-named read-outs stand apart in the source and are kept apart here.

Assays:
[1] = cited from earlier work
[2] = cited from earlier work; remark: listed apart in the source
[3] = system: experimental autoimmune encephalomyelitis (EAE); conditions: cited from earlier work

Compound | dose-limiting side effects ([1]; human, in vivo) | MS lesion development ([1]; mid-stage trials) | most frequent adverse events ([1]; mid-stage trials) | elevations of ALT, AST and lipase ([2]; 75 mg once daily and twice daily) | brain lesions and relapses ([2]; 75 mg once or twice per day vs placebo or dimethyl fumarate) | efficacy in EAE ([3]; 3 mg/kg) | efficacy in EAE ([3]; 10 mg/kg vs 3 mg/kg)
C=CC(=O)N1CCC[C@@H](n2c(=O)n(-c3ccc(Oc4ccccc4)cc3)c3c(N)nccc32)C1 [tolebrutinib] | dose-limiting diarrhea | reduction in MS lesion development | headaches and cold-like symptoms | – | – | – | –
C=CC(=O)N1CCC(CNc2ncnc(N)c2-c2ccc(Oc3ccccc3)cc2)CC1 [evobrutinib] | – | – | – | dose-limiting liver enzyme elevations; also recorded: higher frequency of elevations | trend toward developing fewer brain lesions and experiencing fewer relapses | effective | did not further improve the effect
